Measured values as given in PubChem BioAssay (NCI).
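All cell lines were grown in 96-well plates and treated with compound for 48 hours. TGI marks complete inhibition of growth.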 *1 amine or outer side, *2 acyl side, *3 side chain or, on linkers, in order; H or OH if unused. Where a SMILES comes first, the peptide text is derived from it. [ ]: non-standard residue; d: D form. ξ: configuration not given here. X22 = O=C(C(CC(O)CO)O[*:1])[*:2]; Ile(3ξ) = CCC(C)[C@H](N)C(=O)O; NMeV = CN[C@H](C(=O)O)C(C)C; NMeA = CN[C@@H](C)C(=O)O; βAla = NCCC(=O)O

Legend:
Experiment in all cases: growth of human tumour cells (NCI), 48 h
A498 renal = system: A498 renal
HCT-15 colon = system: HCT-15 colon
IGROV1 ovarian = system: IGROV1 ovarian
KM12 colon = system: KM12 colon
LOX IMVI melanoma = system: LOX IMVI melanoma
LXFL 529 NSCLC = system: LXFL 529 NSCLC
MALME-3M melanoma = system: MALME-3M melanoma
NCI-H226 lung = system: NCI-H226 lung
NCI-H23 lung = system: NCI-H23 lung
NCI-H522 lung = system: NCI-H522 lung
OVCAR-4 ovarian = system: OVCAR-4 ovarian
SK-MEL-2 melanoma = system: SK-MEL-2 melanoma
SK-OV-3 ovarian = system: SK-OV-3 ovarian
SN12C renal = system: SN12C renal
SNB-75 CNS = system: SNB-75 CNS
U251 CNS = system: U251 CNS
DU-145 prostate = system: DU-145 prostate
MCF7 breast = system: MCF7 breast
MDA-MB-231 breast = system: MDA-MB-231 breast
PC-3 prostate = system: PC-3 prostate

| Compound | TGI (A498 renal) [µM] | TGI (HCT-15 colon) [µM] | TGI (IGROV1 ovarian) [µM] | TGI (KM12 colon) [µM] | TGI (LOX IMVI melanoma) [µM] | TGI (LXFL 529 NSCLC) [µM] | TGI (MALME-3M melanoma) [µM] | TGI (NCI-H226 lung) [µM] | TGI (NCI-H23 lung) [µM] | TGI (NCI-H522 lung) [µM] | TGI (OVCAR-4 ovarian) [µM] | TGI (SK-MEL-2 melanoma) [µM] | TGI (SK-OV-3 ovarian) [µM] | TGI (SN12C renal) [µM] | TGI (SNB-75 CNS) [µM] | TGI (U251 CNS) [µM] | TGI (DU-145 prostate) [µM] | TGI (MCF7 breast) [µM] | TGI (MDA-MB-231 breast) [µM] | TGI (PC-3 prostate) [µM] |
| --- | --- | --- | --- | --- | --- | --- | --- | --- | --- | --- | --- | --- | --- | --- | --- | --- | --- | --- | --- | --- |
| CCOC(=O)CC(NCc1ccc(N=Cc2nc3ccc(C(F)(F)F)cc3nc2-c2ccccc2)cc1)C(=O)OCC (stereo not given) | > 100 | > 100 | > 100 | > 100 | > 100 | > 100 | > 100 | > 100 | > 100 | > 100 | > 100 | > 73.3 | > 100 | > 100 | > 77 | > 100 |  |  |  |  |
| COc1c(C)c(O)c2c(c1C)OC(c1ccccc1)CC2=O (stereo not given) | > 100 | > 100 | > 100 | > 100 | > 100 | > 100 | 83.1 | > 100 | > 100 | > 100 | > 100 | 74.1 | > 100 | > 100 | > 100 | > 100 |  |  |  |  |
| Cc1nc2ccc(N)cc2[nH]c1=O | > 100 | > 100 | > 100 | > 100 | > 100 | > 100 | > 100 |  |  |  | > 100 | > 100 | > 100 |  |  | > 100 |  |  |  |  |
| CCOC(=O)c1c2ccc(/C=C/c3ccccc3)ccc-2c(C(=O)OCC)c1N | 99.8 | > 100 | > 100 | > 100 | > 100 | > 100 | > 100 | > 100 | > 100 | > 100 | > 100 | > 100 | > 100 |  | 99.4 |  |  |  |  |  |
| C[N+]1(C)C[C@@H](O)C[C@@H]1C(=O)[O-] | > 100 | > 100 | > 100 | > 100 | > 100 | > 100 | > 100 | > 100 | > 100 | > 100 | > 100 | > 100 | > 100 | > 100 | > 100 | > 100 |  |  |  |  |
| N#CC1CCCCC1NC1(C#N)CCCCC1 (stereo not given) | > 100 | > 100 | > 100 | > 100 | > 100 | > 100 | > 100 | > 100 | > 100 | > 100 |  | > 100 | > 100 | > 100 | > 100 | > 100 |  |  |  |  |
| C=C(C)CC(C)(c1cc2ccccc2n1C)N1CCOCC1 (stereo not given) |  | > 100 | > 100 | > 100 | > 100 | > 100 | > 100 | > 100 | > 100 | 60.9 | > 100 | > 100 | > 100 | > 100 | > 100 |  |  |  |  |  |
| COC(=O)N/N=C(/c1nc2ccc([N+](=O)[O-])cc2[nH]c1=O)C(O)c1ccc(OC)c(OC)c1 (stereo not given) | > 100 | > 78.4 | > 100 | > 100 | > 61.7 | > 100 | > 100 | > 100 | > 100 | > 100 | > 100 | > 100 | > 100 | > 100 | > 100 | > 100 | > 100 | > 100 | > 100 | > 100 |
| N=c1oc2ccccc2cc1C(=O)Nc1nccs1 | > 100 | > 100 | > 49.2 | > 100 | 7.71 |  | > 100 | > 92.3 | > 100 | 3.82 | > 74.2 | 65.4 | > 83.4 | > 100 | 99 | > 100 | > 79.4 | > 100 | > 86.3 | > 100 |
| CCC(C)[C@@H]1NC(=O)[C@@H]2CCCN2C(=O)C(CC(O)CO)OC(=O)CCNC(=O)[C@H](C)N(C)C(=O)[C@H](C(C)C)N(C)C1=O (stereo not given in full) (cyclo([Ile(3ξ)][NMeV][NMeA][βAla][X22]P)) | > 100 | > 100 | > 100 | > 100 | > 100 | > 100 | > 100 | > 100 | > 100 |  | > 100 | > 100 | > 100 | > 100 | > 100 | > 100 |  |  |  |  |
| Cn1cnc2c1c(=O)n(CCNCCO)c(=O)n2C | > 100 | > 100 | > 100 | > 100 | > 100 |  | > 100 | > 100 | > 100 | > 100 | > 100 | > 100 | > 100 | > 100 | > 100 | > 100 | > 100 | > 100 | > 100 | > 100 |
| CSc1nc2nc(C(O)C(O)C(O)CO)cnc2c(=O)[nH]1 (stereo not given) | > 100 | > 100 | > 100 | > 100 | > 100 | > 100 | > 100 | > 100 | > 100 | > 100 |  | > 100 | > 100 | > 100 | > 100 | > 100 |  |  |  |  |
| COC1=CC(=O)C2C(C1=O)C(c1ccc(Cl)cc1)[C@@H]2C (stereo not given in full) | > 100 | 31.9 | > 100 | > 100 | > 100 | 32.7 | 46 | 81.8 | > 100 | 29.8 | > 100 | > 100 | > 100 |  | 64.8 | 62.9 |  |  |  |  |
| COC(=O)/C(=N/NC(C)(C)C)C(C(=O)OC)C(=O)C(=O)Nc1nc2ccc([N+](=O)[O-])cc2s1 (stereo not given) | > 100 | > 100 | > 100 | > 100 | > 100 | > 100 | > 100 | > 100 | > 100 | > 100 | > 100 | > 100 | > 100 | > 100 |  | > 100 |  |  |  |  |
| COC(=O)C(Cc1nc2ccccc2[nH]c1=O)C(=O)C(=O)Nc1ccc(F)cc1 (stereo not given) |  | > 100 | > 100 | > 100 | > 100 | 30 | 79.5 | > 100 | > 100 | 22.3 | > 100 | > 100 | > 100 | > 100 | > 100 |  |  |  |  |  |
| CCSc1nnc(-c2ccccc2)nc1Cc1ccc(OC)cc1 | > 100 | > 100 | > 100 | > 100 | > 100 | > 100 | > 100 | > 100 | > 100 | > 100 | > 100 | > 100 | > 100 | > 100 | > 100 | > 100 |  |  |  |  |
